Consider one compound from patent publication US20030165570A1, “Pharmaceutical compositions containing micronized bicyclic drugs” (SmithKline Beecham p.l.c., priority 1997, published 2003).

Structures are written as SMILES. In brackets after ≈: the same amount, converted by molar mass.

The data set is described as follows: Aqueous solubility. The class given is physicochemical. From the text:
The compounds used in this invention have a very low solubility in water.

For orientation: aqueous solubility means how much of the substance goes into solution per volume. `CC(=O)c1ccc2c(c1)[C@H](NC(=O)c1ccc(F)cc1)[C@@H](O)C(C)(C)O2` (relative stereo) [Compound 1, trans-6-acetyl-4S-(4-fluorobenzoylamino)-3,4-dihydro-2,2-dimethyl-2H-1-benzopyran-3R-ol]: the USP solubility classification result is on record as “virtually insoluble” and the aqueous solubility is 8 µg/mL (≈ 22.4 µM).
